# Legend:
# AML patient blast cells = test: Flow cytometry (MMP, ROS, GSH, membrane integrity) of primary AML patient blasts treated ex vivo; type: cell-based, human
# Experimental: • Cell lines: OCI-AML2, OCI-AML5, OCI-M2 (p53 mutant M6), MV4-11 (FLT3-ITD) • Patients were treated by the Princess Margaret Hospital Leukemia Program. • Primary blasts from 10 AML patients isolated by density gradient or RBC lysis, maintained in a-MEM+10% FBS±10% 5637-conditioned medium. Flow Cytometry Protocol: • Combined staining at 37° for: • MMP—DiIC1(5) 40 nM 30′ • ROS—carboxy-dichlorofluorescin […] or dihydrorhodamine 123 […] for 30′ • GSH—monobromobimane […] for 5′ • Surface membrane integrity—propidium iodide […] for 5′ • Samples run on 3 laser flow cytometer (Gallios, Beckman-Coulter)
# metastatic melanoma = settings: cited from earlier work
SMILES,mitochondrial dysfunction and cell death (AML patient blast cells; ex vivo treatment of primary blast cells from patients with AML),"primary endpoint, difference between the two arms (metastatic melanoma; elevated LDH population)",survival endpoint (metastatic melanoma; elevated LDH population),progression-free survival improvement (primary endpoint) (metastatic melanoma; normal LDH population),safety profile (metastatic melanoma; normal LDH population),"ROS (AML patient blast cells; Patient #123 blasts, 100nM, 6 hr, FIG. 3a)","loss of mitochondrial membrane potential versus outer membrane integrity (dual MMP/PI plots) (AML patient blast cells; Patient #123 blasts, FIG. 3a)","reduced GSH (AML patient blast cells; Patient #123 blasts, FIG. 3a)","sensitivity of primary patient blasts compared with AML cell lines (AML patient blast cells; Patient #123 blasts, FIG. 3a)","sensitivity of blasts (AML patient blast cells; Patient #126 blasts, FIG. 3d)","GSH (AML patient blast cells; Patient #127 blasts, 30 nM, already evident at 6 hr, FIG. 3b)","sensitivity of blasts (AML patient blast cells; Patient #131 blasts (higher baseline GSH), FIG. 3c)","GSH and MMP (AML patient blast cells; Patient #131 blasts, FIG. 3c)","ROS (AML patient blast cells; Patient #131 blasts, most evident at 30 nM 24 hr, FIG. 3c)",depletion of GSH and dissipation of mitochondrial membrane potential (AML patient blast cells; all cases),"impairment of primary blasts (AML patient blast cells; all samples, 30 nM)"
"CN(NC(=O)CC(=O)NN(C)C(=S)c1ccccc1)C(=S)c1ccccc1 [elesclomol, N-malonyl-bis(N′-methyl-N′-thiobenzoylhydrazide)]",rapidly induced mitochondrial dysfunction and cell death,no difference was observed,negative impact,achieved,acceptable safety profile,–,–,–,–,–,–,–,–,–,–,–
CN1C(c2ccccc2)=[SH][Cu]23[SH]=C(c4ccccc4)N(C)[N]2C(=O)CC(=O)[N]13 [elesclomol-Cu(II)],–,–,–,–,–,slight increase in ROS,loss of mitochondrial membrane potential precedes the loss of outer membrane integrity,lost co-incident with the loss of MMP,more drug-sensitive,highly sensitive,loss of GSH,less sensitive,loss of GSH co-incident with loss of MMP,increased ROS,occurred in all cases,significant impairment

# — patent US8822532B2, “Bis[thiohydrazide amide] compounds for treating leukemia” (Synta Pharmaceuticals Corp., priority 2009, dated 2014)
